What was measured:
Assay type in all cases: functional, cell-based
[1] = system: SNB-19; experiment: Antitumor activity against human SNB19 cells after 48 hrs; settings: SNB-19, 48 h
[2] = system: SNB-19; experiment: Antitumor activity against human SNB19 cells after 24 hrs; settings: SNB-19, 24 h
[3] = system: SNB-19; experiment: Antitumor activity against human SNB19 cells after 2 hrs; settings: SNB-19, 2 h

- IC50 [1]: 30.1 µM
- IC50 [2]: 23.9 µM
- IC50 [3]: 114 µM
Compound: Cc1onc(-c2c3ccccc3c(Cl)c3ccccc23)c1C(=O)NCCCN(C)CCCNC(=O)c1c(-c2c3ccccc3c(Cl)c3ccccc23)noc1C

— ChEMBL document CHEMBL1152405, “Bis-anthracenyl isoxazolyl amides have enhanced anticancer activity” (Bioorg Med Chem Lett, 2009)
